From ChEMBL document CHEMBL1150142, “New onoceranoid triterpene constituents from Lansium domesticum” (J Nat Prod, 2002)
Activity calls are given as the source filed them. The rule behind the calls is not given here.

test: Inhibition of trypsin

Compound	Activity
C=C(C)[C@@H]1CCC(=C)[C@H](CC[C@H]2C(C)=CC[C@@H](C(=C)C)[C@]2(C)CCC(=O)O)[C@@]1(C)CCC(=O)O	inactive
C=C(C)[C@@H]1CC=C(C)[C@H](CC[C@H]2C(=C)CC[C@H]3C(C)(C)C(=O)CC[C@]23C)[C@@]1(C)CCC(=O)OC	inactive

Further lines, results first:

Activity	Compound
inactive	C=C(C)[C@@H]1CC=C(C)[C@H](CC[C@H]2C(=C)CC[C@H]3C(C)(C)C(=O)CC[C@]23C)[C@@]1(C)CCC(=O)O
inactive	C=C1CC[C@H]2C(C)(C)[C@@H](O)CC[C@]2(C)[C@H]1CC[C@H]1C(C)=CC[C@H]2C(C)(C)C(=O)CC[C@]12C
inactive	C=C1CC[C@H]2C(C)(C)C(=O)CC[C@]2(C)[C@H]1CC[C@H]1C(C)=CC[C@H]2C(C)(C)[C@@H](O)CC[C@]12C
